In patent US12509446B2, “FYN and VEGFR2 kinase inhibitors” (ROTTAPHARM BIOTECH S.R.L., priority 2019, dated 2025):

How the values were obtained:
[1] = Pharmacokinetics after administration into the knee joint of rats; assay type: in vivo; conditions: suspension into the knee joint
VEGFR2 = VEGFR2 (Homo sapiens (Human), UniProt P35968); assay: In vitro VEGFR2 kinase activity assay (Eurofins Cerep); assay type: biochemical; conditions: read-out: VEGFR2 KINASE INHIBITION IC50
Summary of the method: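 Contract biochemical kinase assay on human VEGFR2 with inhibitors at 10^−8 to 10^−5 M final (some re-tested from 10^−9 M). Activity expressed as percent of no-compound control; IC50 by non-linear regression of mean replicate inhibition curves.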

CDK2 = CDK2 (Homo sapiens (Human), UniProt P24941); assay: Kinase selectivity (Eurofins Cerep), CDK2; assay type: biochemical; conditions: maximal concentration tested 10 μM
Protocol: (§1) The assays were performed in Eurofins Cerep (France). The concentration range of the compound under investigation was from 10^−9 M up to 10^−5 M final concentration.

CFA induced hyperalgesia = assay: Complete Freund Adjuvant (CFA)-induced inflammatory pain in rats; assay type: in vivo, rat; conditions: intra-dermal
ADAMTS-5 = assay: Gene expression in rat articular chondrocytes under IL-1β stimulation, ADAMTS-5; assay type: cell-based; conditions: Rattus norvegicus, Chondrocyte; 6 h incubation
Summary of the method: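 Cells are first synchronized in low-supplement medium (DMEM GlutaMAX I 0.4%). They are then exposed together to test compound and 2 ng/ml cytokine. After 6 h, IL-1β and ADAMTS-5 mRNA is quantified, and after 24 h MMP3 and MMP13 mRNA, all by TaqMan PCR against 18S.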

human FynB = human FynB (Homo sapiens, UniProt P06241); assay: Inhibition of FynB-induced Tau(Y18)-phosphorylation in HEK293 cells; assay type: cell-based
Protocol: After 24 h, cells were transfected in order to over-express either constitutively active form of human FynB and Tau protein (isoform 0N4R), through an optimized Lipofectamine®3000 Transfection protocol (Life Technologies™). A non-transfected sample (negative control) was included in every experiment. Twenty-four hours from transfection, treatments of cells were performed by adding fresh medium containing diluent (DMSO 0.1% final concentration) or test compounds. The incubation was carried out for 6 or 24 hours at 37° C. with 5% CO2. At the end of the incubation, the medium was removed and cellular lysates, obtained by adding M-PER lysis/Protease/Phosphatase inhibitors cocktail, were transferred into Eppendorf tubes, sonicated and stored at −80° C. Protein content was measured by Bradford method. Lysates were analyzed either by customized ELISA assays for Tau phosphorylation (Tyrosine 18 residue—Fyn mediated) and Tau-Total amount determination.

[2] = tested on: bovine nasal septum cartilage; assay: Inhibition of cartilage degradation (GAG release) induced by IL-1α in a bovine in vitro model; assay type: cell-based
Summary of the method: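 Cartilage punches (2 mm) from an 8-month-old male bovine nasal septum were cultured 48 h, then stimulated 48 h with IL-1α […] ± compound in DMEM + 0.1% BSA. Compound doses were set from 48 h rat chondrocyte toxicity. GAG in medium and papain-digested tissue was measured by DMB absorbance at 590 nm; degradation = medium GAG/total GAG × 100.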

VEGFR = VEGFR (Homo sapiens (Human), UniProt P35968); assay: Inhibition of VEGF-induced VEGFR (Y1175)-phosphorylation in HUVEC-C cells; assay type: cell-based; conditions: starting from the concentration of 0.01 μM; VEGF 50 ng/ml
Protocol: HUVEC-C cells (Human Umbilical Vein Endothelial Cells from ATCC) were plated at 6×10^4 cells/well in 24 w microplates and grown adherent in medium F12K+0.1 mg/ml Heparin+0.05 mg/ml ECGS+10% FBS at 37° C. with 5% CO2. After 24 h, medium was removed and starvation was induced overnight in medium F12K+0.1 mg/ml Heparin+0.5% FBS (medium starvation). At the end of incubation, treatment of cells was performed by medium replacement and by adding fresh medium starvation containing or not diluent (DMSO 0.1% final concentration), or test compound (range 10^−8 M-10^−5 M). After 1 hour, VEGF stimuli (50 ng/ml final concentration) was added to each sample, with the exception of “basal-no stimulus” sample; plate was then incubated for 5 min at 37° C. with 5% CO2. At the end of the incubation, the medium was removed and cellular lysates, obtained by adding M-PER lysis/Protease/Phosphatase inhibitors cocktail. Then, lysates were transferred into Eppendorf tubes, sonicated and stored at −80° C.
Lysates were analyzed by Western blot for VEGFR phosphorylation (Tyrosine 1175) and total receptor amount determination. Densitometric analysis of sample lanes were performed by ImageQuant TL software (GE Healthcare Life Sciences). Each sample value was normalized by respective actin; resulting data were used to calculate inhibitory effect of compounds with respect to stimuli control (absence of inhibitor).

[3] = Pharmacokinetics, systemic routes, rats; assay type: in vivo
AMPKa = assay: Kinase selectivity (Eurofins Cerep), AMPKa; assay type: biochemical, human; conditions: maximal concentration tested 10 μM
Protocol: as §1

human FynB, sequence (P06241 2-537 limits assumed): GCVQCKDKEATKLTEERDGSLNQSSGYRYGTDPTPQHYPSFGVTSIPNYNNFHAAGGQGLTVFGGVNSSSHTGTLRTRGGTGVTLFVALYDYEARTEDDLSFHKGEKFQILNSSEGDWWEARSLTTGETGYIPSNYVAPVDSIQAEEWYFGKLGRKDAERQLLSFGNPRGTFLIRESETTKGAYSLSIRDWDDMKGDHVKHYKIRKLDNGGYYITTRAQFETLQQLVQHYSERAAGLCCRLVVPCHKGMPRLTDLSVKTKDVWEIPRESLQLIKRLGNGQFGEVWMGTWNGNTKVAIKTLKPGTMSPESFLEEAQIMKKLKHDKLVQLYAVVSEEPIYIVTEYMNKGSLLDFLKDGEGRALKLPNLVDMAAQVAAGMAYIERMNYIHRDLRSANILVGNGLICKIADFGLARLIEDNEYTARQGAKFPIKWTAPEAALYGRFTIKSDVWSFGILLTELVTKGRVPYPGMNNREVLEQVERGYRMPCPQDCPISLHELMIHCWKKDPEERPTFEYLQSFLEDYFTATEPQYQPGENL
VEGFR2, sequence (P35968 20-1356): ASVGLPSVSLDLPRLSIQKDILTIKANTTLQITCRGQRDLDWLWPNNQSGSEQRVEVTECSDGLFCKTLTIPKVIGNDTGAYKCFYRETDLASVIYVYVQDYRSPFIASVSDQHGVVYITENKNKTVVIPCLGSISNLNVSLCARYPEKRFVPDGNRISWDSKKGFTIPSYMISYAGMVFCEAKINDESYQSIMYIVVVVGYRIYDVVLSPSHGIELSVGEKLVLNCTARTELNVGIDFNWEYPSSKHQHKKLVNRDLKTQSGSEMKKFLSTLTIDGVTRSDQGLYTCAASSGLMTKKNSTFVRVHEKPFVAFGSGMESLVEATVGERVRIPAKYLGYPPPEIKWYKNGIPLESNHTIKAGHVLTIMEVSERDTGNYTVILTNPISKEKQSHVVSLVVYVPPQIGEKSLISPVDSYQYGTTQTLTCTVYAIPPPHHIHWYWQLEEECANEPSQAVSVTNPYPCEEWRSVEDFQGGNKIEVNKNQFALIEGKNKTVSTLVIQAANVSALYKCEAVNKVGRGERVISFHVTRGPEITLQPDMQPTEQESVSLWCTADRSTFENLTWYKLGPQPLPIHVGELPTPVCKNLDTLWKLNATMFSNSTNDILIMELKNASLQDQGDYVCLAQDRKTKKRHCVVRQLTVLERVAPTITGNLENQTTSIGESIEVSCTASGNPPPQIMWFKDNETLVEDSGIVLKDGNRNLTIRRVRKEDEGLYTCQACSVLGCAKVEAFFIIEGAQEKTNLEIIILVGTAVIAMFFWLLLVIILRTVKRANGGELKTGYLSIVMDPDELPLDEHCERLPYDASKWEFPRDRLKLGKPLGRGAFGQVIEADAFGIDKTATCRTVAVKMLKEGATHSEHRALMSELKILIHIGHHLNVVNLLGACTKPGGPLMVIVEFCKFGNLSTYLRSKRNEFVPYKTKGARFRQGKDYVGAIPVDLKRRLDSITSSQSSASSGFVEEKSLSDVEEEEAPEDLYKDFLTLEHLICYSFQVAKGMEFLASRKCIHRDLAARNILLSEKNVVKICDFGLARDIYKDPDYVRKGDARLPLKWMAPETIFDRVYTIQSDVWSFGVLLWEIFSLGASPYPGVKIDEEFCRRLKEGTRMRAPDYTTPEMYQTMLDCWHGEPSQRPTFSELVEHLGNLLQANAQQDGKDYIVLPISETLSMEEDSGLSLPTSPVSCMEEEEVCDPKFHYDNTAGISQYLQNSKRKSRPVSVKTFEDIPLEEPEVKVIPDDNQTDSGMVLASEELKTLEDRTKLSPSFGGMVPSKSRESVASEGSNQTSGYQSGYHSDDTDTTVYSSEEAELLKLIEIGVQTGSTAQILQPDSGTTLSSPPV
VEGFR, sequence (P35968 20-1356): as above

For Cc1ccc(NC(=O)c2cccc(C(F)(F)F)c2)cc1CCc1cc(Nc2cnccn2)[nH]n1 [Compound 3, N-(4-methyl-3-(2-(5-(pyrazin-2-ylamino)-1H-pyrazol-3-yl)ethyl)phenyl)-3-(trifluoromethyl)benzamide], the “Permanence in the synovial fluid and articular tissues (cartilage and synovial fat)” value [1] was “at least 14 days”, the IC50 (VEGFR2) was 7 nM and the IC50 (CDK2) was > 10000 nM. The “Effect on normal nociception in naïve animals” value (CFA induced hyperalgesia; 3 μM (140 ng/paw), no CFA challenge) was “did not modify the normal nociception”, the “Effect on pain behavior in CFA inflamed animals (mechanical pain threshold)” value (CFA induced hyperalgesia; maximal concentration of 3 μM (140 ng/paw)) was “completely reverted the pain behavior” and the IC50 (ADAMTS-5) was 34 nM. The “Effect on Tau-protein total amount” value (human FynB) was “Moderate not significant effect”, the “Mean percentage of inhibition of Tau(Y18)-phosphorylation” value (human FynB; after 24 hours of treatment) was 95% and the IC50 (human FynB; read-out: Inhibition of FynB-induced Tau(Y18)-phosphorylation IC50, after 6 hours of treatment) was 131 nM. For the same molecule, the inhibition at 1 µM ([2]; Bos taurus, 1 μM, read-out: Bovine cartilage degradation induced by IL-1α, % inhibitory effect at max concentration) was 100%, the “Inhibitory effect on the GAG release” value ([2]; at max concentration) was 95-100% and the “Inhibitory activity on VEGFR-phosphorylation at Y1175 residue” value (VEGFR) was “complete inhibitory activity”. For the same molecule, the Metabolism in rats [3] was “lack of important metabolism”, the bioavailability ([3]; rat, in vivo, oral route, read-out: Absolute bioavailability) was ~6% and the IC50 (AMPKa) was > 10000 nM.
